Measured values: ChEMBL document CHEMBL4177745, “2-Methyltetrahydro-3-benzazepin-1-ols - The missing link in SAR of GluN2B selective NMDA receptor antagonists” (Bioorg Med Chem, 2018)

Key:
[1] = target: T1, Sigma intracellular receptor 2 (Rattus norvegicus, UniProt Q5U3Y7); test: Displacement of [3H]-DTG from sigma 2 receptor in rat liver membranes after 120 mins by scintillation counting analysis; type: cell membranes, Membrane
T1 sequence (Q5U3Y7 whole entry): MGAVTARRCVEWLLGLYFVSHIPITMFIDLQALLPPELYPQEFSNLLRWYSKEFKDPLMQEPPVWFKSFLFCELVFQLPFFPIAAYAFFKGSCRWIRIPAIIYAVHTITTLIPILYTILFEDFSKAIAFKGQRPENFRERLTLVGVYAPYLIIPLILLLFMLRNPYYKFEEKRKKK

[2] = Displacement of [3H]-ifenprodil from recombinant human GluN1a/GluN2B expressed in L(tk-) cell membranes after 120 mins by scintillation counting analysis
[3] = target: Sigma non-opioid intracellular receptor 1 (Cavia porcellus, UniProt Q60492); test: Displacement of [3H]-(+)-Pentazocine from sigma 1 receptor in guinea pig brain cortex membranes after 120 mins by scintillation counting analysis; type: cell membranes
[4] = Selectivity ratio of Ki for recombinant human GluN1a/GluN2B expressed in L(tk-) cell membranes to Ki for sigma 1 receptor in guinea pig brain cortex membranes; type: cell-based

Chain of Sigma non-opioid intracellular receptor 1 (Q60492 whole entry): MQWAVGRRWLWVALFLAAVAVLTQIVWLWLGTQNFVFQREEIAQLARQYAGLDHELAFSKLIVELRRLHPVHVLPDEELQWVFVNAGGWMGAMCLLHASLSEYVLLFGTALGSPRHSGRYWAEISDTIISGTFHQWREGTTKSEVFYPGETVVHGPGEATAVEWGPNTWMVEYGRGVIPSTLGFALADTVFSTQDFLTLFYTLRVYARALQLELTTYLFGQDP

Structure (SMILES)	Ki [1] [nM]	Ki [3] [nM]	Ki [2] [nM]	Ratio Ki [4]
Oc1ccc2c(c1)CCN(CCCCc1ccccc1)CC2O (centres undefined)	> 10000	–	14	–
C[C@@H]1[C@H](O)c2ccc(O)cc2CCN1CCCCc1ccccc1	148	–	17	–
C[C@@H]1[C@H](O)c2ccccc2CCN1Cc1ccccc1 (relative stereo)	894	261	259	–
CC(C(O)c1ccc(O)cc1)N1CCC(Cc2ccccc2)CC1 (centres undefined) [IFENPRODIL]	–	–	10	–

Further lines, with some results ahead:

Ki [1] [nM]	Ki [3] [nM]	Structure (SMILES)	Ki [2] [nM]	Ratio Ki [4]
76	676	OC1CN(CCCCc2ccccc2)CCc2ccccc21 (centres undefined)	73	–
126	46	C[C@@H]1[C@H](O)c2ccccc2CCN1CCCCc1ccccc1 (relative stereo)	252	5
60	10	C[C@@H]1[C@H](O)c2ccccc2CCN1CCCCCc1ccccc1 (relative stereo)	56	5
